Measured values taken from patent publication US20030113810A1, “Novel assay” (priority 2000, published 2003).
Read-outs that look alike come from different tables or passages of the source.

Tests used:
human GPR41 = target: T1, human GPR41 (Homo sapiens, UniProt O14843)
T1 sequence (O14843 1-346): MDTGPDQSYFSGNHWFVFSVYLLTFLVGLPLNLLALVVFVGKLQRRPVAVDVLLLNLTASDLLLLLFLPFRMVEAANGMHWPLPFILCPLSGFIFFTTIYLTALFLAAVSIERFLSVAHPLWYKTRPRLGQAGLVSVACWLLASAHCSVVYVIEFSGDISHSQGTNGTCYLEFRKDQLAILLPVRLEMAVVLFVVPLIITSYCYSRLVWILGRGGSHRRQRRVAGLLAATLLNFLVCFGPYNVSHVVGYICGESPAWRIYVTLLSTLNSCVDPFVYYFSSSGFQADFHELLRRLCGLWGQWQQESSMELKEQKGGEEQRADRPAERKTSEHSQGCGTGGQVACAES
Procedure: HEK293T cells (HEK293 cells stably expressing the SV40 large T-antigen) were maintained in DMEM containing 10% (v/v) foetal calf serum and 2 mM glutamine. Cells were seeded in 60 mm culture dishes and grown to 60-80% confluency (18-24 h) prior to transfection with pCDNA3 containing the relevant DNA species using Lipofectamine reagent. For transfection, 3 μg of DNA was mixed with 10 μl of Lipofectamine in 0.2 ml of Opti-MEM (Life Technologies Inc.) and was incubated at room temperature for 30 min prior to the addition of 1.6 ml of Opti-MEM. Cells were exposed to the Lipofectamine/DNA mixture for 5 h and 2 ml of 20% (v/v) newborn calf serum in DMEM was then added. Cells were harvested 48-72 h after transfection.
Plasma membrane-containing P2 particulate fractions were prepared from cell pastes frozen at −80° C. after harvest. All procedures were carried out at 4° C. Cell pellets were resuspended in 1 ml of 10 mM Tris-HCl and 0.1 mM EDTA, pH 7.5 (buffer A) and by homogenisation for 20 s with a polytron homogeniser followed by passage (5 times) through a 25-guage needle. Cell lysates were centrifuged at 1,000 g for 10 min in a microcentrifuge to pellet the nuclei and unbroken cells and P2 particulate fractions were recovered by microcentrifugation at 16,000 g for 30 min. P2 particulate fractions were resuspended in buffer A and stored at −80° C. until required. Protein concentrations were determined using the bicinchoninic acid (BCA) procedure (4) using BSA as a standard.
Assays were performed in 96-well format using a method modified from Wieland and Jakobs, 1994. Membranes (10 μg per point) were diluted to 0.083 mg/ml in assay buffer (20 mM HEPES, 100 mM NaCl, 10 mM MgCl2, pH7.4) supplemented with saponin (10 mg/l) and pre-incubated with 40 μM GDP. […] Non-specific binding was determined by the inclusion of 0.6 mM GTP. […] Plates were centrifuged at 1500 g for 5 min and bound [^35S]GTPγS was determined by scintillation counting on a Wallac 1450 microbeta Trilux scintillation counter.

[1] = test system: isoprenaline-stimulated adenylate cyclase activity in rat primary adipocytes; conditions: 10 minutes at 37° C., FIG. 11
Procedure: Isoprenaline stimulates adenylate cyclase activity and subsequently the process of lipolysis following activation of β-adrenoceptors and G,a in adipocytes.
A reaction mixture of 500 μl was used in a 1.5 ml eppendorf tube. The reaction was started by the addition of 100 μl of adipocytes to a 400 μl volume of Krebs buffer containing isoprenaline and test compound. Following the addition of the adipocytes the reaction tube was incubated at 37° C. for 10 minutes. The reaction was stopped with the addition of 500 μl of a stop mixture containing methanol (1 part), chloroform (2 parts) and 0.1N HCl (0.1 part). Following the addition of the stop mixture each tube was vortexed and then centifuged at 5000 rpm for 5 minutes. 300 μl of the supernatent was removed and stored at −20° C. The levels of cAMP in each samples were determined using an ELISA kit from R&D systems (DE0355).

rGPR41 [2] = target: T2, rGPR41 (Rattus norvegicus, UniProt B2GV46); test: Yeast FUS1-lacZ/FUS1-HIS3 reporter assay, rGPR41 in S. cerevisiae MMY22 (Gpa1/Gαo), FDG substrate; format: cell-based; parameters: expressed in transfected cells; host or cells: S. cerevisiae MMY22 (A1, A5; Gpa1/Gαo integrated) or MMY11 + pRS314-Gpa1/Gαo (A4), transformed with p426GPD-rGPR41
T2 sequence (B2GV46 1-319): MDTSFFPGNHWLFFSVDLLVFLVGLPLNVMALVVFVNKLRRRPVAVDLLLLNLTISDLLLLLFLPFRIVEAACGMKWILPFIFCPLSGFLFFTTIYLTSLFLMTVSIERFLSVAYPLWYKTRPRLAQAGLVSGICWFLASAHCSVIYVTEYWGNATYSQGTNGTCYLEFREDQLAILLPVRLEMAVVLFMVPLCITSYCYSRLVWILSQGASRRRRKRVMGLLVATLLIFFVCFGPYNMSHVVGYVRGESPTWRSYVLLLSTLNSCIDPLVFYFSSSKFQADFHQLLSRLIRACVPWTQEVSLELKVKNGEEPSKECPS
Procedure: A study was carried out of the function of rGPR41 following expression in S. cerevisiae MMY22, which is a derivative of S. cerevisiae MMY11 containing a copy of the gene encoding the Gpa1/Gαo transplant chimera described above (in which the 5 C-terminal amino acids of Gpa1 are replaced with the 5 C-terminal amino acids of Gαo) integrated into the genome. To do this, a cassette comprising the GPA1 promoter, nucleotide sequence encoding Gpa1/Gαo, and the terminator was sub-cloned from pRS314-Gpa1/Gαo into the yeast integrating plasmid pRS304 (Sikorski and Hieter, 1989). The resulting plasmid pRS304-Gpa1/Gαo was transformed into MMY11 and integrated into the trp1 locus creating MMY22.
The rGPR41 expression construct described above, p462GPD-rGPR41 was introduced into MMY22 by transformation as described above. Four separate transformants were tested for reporter gene activation in response to propionate. Assays for FUS1-lacZ and FUS1-HIS3 induction were performed as described, except the β-galactosidase (lacZ) substrate fluorescein di-β-D-galactopyranoside (FDG) was used in place of CPRG, and 3-aminotriazole concentration was 5 mM. Also, black-walled 96-well microtitre plates were used, and fluorescence resulting from degradation of FDG to fluorescein due to β-galactosidase was determined using a Spectrofluor microtitre plate reader (Tecan)(excitation wavelength: 485 nm; emmision wavelength: 535 nm).
A series of carboxylic acids and other compounds related to propionate were tested for the ability to activate rGPR41. Experiments were performed as described above, using yeast cells of strain MMY22 transformed with rGPR41 expression plasmid p462GPD-rGPR41, except that the agonist propionate was replaced with one of a series of other compounds, which are listed in table 2 below.
In vivo assays of reporter gene induction were carried out by suspending MMY11 cells transformed as described above to a density of 0.02 OD600/ml in 200 μl SC-glucose (2%) medium lacking tryptophan, uracil and histidine. This medium was supplemented with 10 mM 3-aminotriazole and the β-galactosidase (lacZ) substrate chlorophenolred-β-D-galactopyranoside (CPRG; Boehringer Mannheim) to a concentration of 0.1 mg/ml. Additionally the medium was supplemented with various concentrations of the agonist ligand, propionate (sodium propionate, pH 7.0). To visualise the yellow to red colour change reaction occurring on degradation of CPRG due to β-galactosidase, the medium was buffered to pH 7 with 0.1 M sodium phosphate. The assay was conducted in flat-bottomed sterile 96-well microtitre plates. Plates were incubated for 24 hours at 30° C. without agitation, and absorbance at 570 nm was determined using a Spectrofluor microtitre plate reader (Tecan).

rGPR41 [3] = target: T2, rGPR41; test: Yeast reporter gene induction, MMY11 cells with p426GPD-rGPR41 and pRS314-Gpa1/Gαo, CPRG substrate; format: cell-based; conditions: MMY11, Gpa1/Gαo transplant; FIG. 6
From the text: Significant absorbance at 570 nm, corresponding to induction of FUS1-lacZ and FUS1-HIS3 reporter genes, was detected for MMY11 cells containing p426GPD-rGPR41 in combination with pRS314-Gpa1/Gαo. These cells express rGPR41 in combination with a Gα subunit identical to Gpa1 but in which the 5 C-terminal amino acids are replaced with the 5 C-terminal amino acids of the mammalian Gα subunit, Gαo. This response is dependant on the presence of the agonist ligand propionate since no induction is detected in the absence of propionate (FIG. 6). […] Of the other Gα subunits tested, the pRS314-Gpa1/Gα12 and pRS314-Gpa1/Gα13 transplants supported weak rGPR41 coupling detectable after 48 hrs incubation (data not shown), and with no other Gα subunit could ligand responses of rGPR41 be detected.
The yeast strain MMY11 has been described previously (Olesnicky et al, 1999). […]
In vivo assays of reporter gene induction were carried out by suspending MMY11 cells transformed as described above to a density of 0.02 OD600/ml in 200 μl SC-glucose (2%) medium lacking tryptophan, uracil and histidine. […] Plates were incubated for 24 hours at 30° C. without agitation, and absorbance at 570 nm was determined using a Spectrofluor microtitre plate reader (Tecan).

[4] = yeast MMY22 with p462GPD-rGPR41, FDG fluorescence, compounds as salt solutions buffered to pH 7.0, read-out: Agonism @ rGPR41 Approx. EC50

Row | SMILES | stimulation of [35S]GTPγS binding (human GPR41) | isoprenaline-amplified cAMP levels [1] | EC50 (rGPR41 [2]; [4]) [µM] | induction of FUS1-lacZ and FUS1-HIS3 reporter genes (absorbance at 570 nm) (rGPR41 [3]) | stimulation of [35S]GTPγS binding (human GPR41; membranes of HEK293T cells, human GPR41 + Go1α, FIG. 2-4) | fluorescence, activation of the pheromone response pathway by rGPR41 (rGPR41 [2]; MMY22, four transformants, FIG. 7) | EC50 (rGPR41 [2]; yeast MMY22, text of Example 8, read-out: EC50 value at rGPR41) [µM]
1 | CC(=O)O [Acetate] | stimulation of [^35S]GTPγS binding | reduction of isoprenaline-amplified cAMP levels | ~1000 |  |  |  | 
2 | CCC(=O)O [Propionate] |  |  | ~5 | can be activated by propionate | most potent and efficacious | dependent on the concentration of propionate | 5
